Results as given in patent publication US20040180394A1, “Assays for inositol phosphates” (priority 2001, published 2004).
Where no end group is shown, it is not given here.

Tests used:
untransfected T24 cells = assay: Inositol phosphate SPA assay in untransfected T24 cells; format: cell-based; conditions: 1 mM carbachol
parent T24 cell line = assay: FLIPR intracellular calcium in parent T24 cell line; format: cell-based
[1] = tested on: acetylcholine receptors naturally expressed in HEK293 cells; assay: Inositol phosphate SPA assay in wild-type HEK293 cells; format: cell-based, human; conditions: 1 mM carbachol, 5 mM LiCl where used (FIG. 9)
From the text: See Example 8 for details.

[2] = tested on: untransfected CHO/NFAT cells; assay: Inositol phosphate assay in untransfected CHO/NFAT cells; format: cell-based; conditions: untransfected CHO/NFAT cells (FIGS. 7A-D), 10 nM NPFF
From the text: There was no response to NPFF in untransfected CHO/NFAT cells (FIGS. 7A-D).

Compound | response to agonist (inositol phosphates) (untransfected T24 cells) | rise in intracellular calcium (parent T24 cell line) | inositol phosphate level [1] | response to agonist (inositol phosphates) [2]
C[N+](C)(C)CCOC(N)=O [carbachol] | no response | no rise in intracellular calcium | increase of inositol phosphate | 
NPFF: agonist used at 10 nM to activate the human neuropeptide FF receptor (FLFQPQRF; ends and bridges not checked; UniProt O15130 69-76, looked up) |  |  |  | no response
